The values that follow come from ChEMBL document CHEMBL4118195, “Synthesis and profiling of benzylmorpholine 1,2,4,5-tetraoxane analogue N205: Towards tetraoxane scaffolds with potential for single dose cure of malaria” (Bioorg Med Chem, 2018).

pIC50: −log10 of the molar value.

The test system of data set [1] is Plasmodium berghei. The data set is described as follows: Antimalarial activity against Plasmodium berghei infected in mouse assessed as reduction in parasitemia at 30 mg/kg, po administered as single dose measured on day 3 relative to control. Type of data set: functional. Set-up: scale not given: the % may be the effect or the level left.
Data set [2] relates to Plasmodium berghei. The data set is described as follows: Antimalarial activity against Plasmodium berghei infected in mouse assessed as mouse mean survival days at 30 mg/kg, po administered as single dose. Type of data set: functional.
In data set [3] the test system is Plasmodium falciparum. The data set is described as follows: Antimalarial activity against Plasmodium falciparum 3D7 infected in human erythrocytes after 48 hrs by SYBR Green I dye-based fluorescence assay. Type of data set: functional, organism-based. To be noted: 3D7, 48 h.
Data set [4] is described as follows: Half life in rat blood by LC-MS method. Type of data set: ADME, tissue-based.
The test system of data set [5] is Plasmodium falciparum. The data set can be described thus: Antimalarial activity against Plasmodium falciparum Pf3D70087/N9 infected in po dosed humanized NOD.Cg-Prkdcscid Il2rgtm1Wjl/SzJ mouse assessed as compound concentration in whole blood require to reduce parasitemia in peripheral blood by 90% administered as single dose measured on day 7 post infection by SYTO-16 dye-based flow cytometric analysis. Type of data set: functional, organism-based.

Data set [6] in a line: Aqueous solubility after 4 hrs by HPLC analysis. Type of data set: physicochemical. The conditions noted are these: water.
Data set [7] is described as follows: Solubility in 0.1 N HCl buffer at pH 1 after 4 hrs by HPLC analysis. Type of data set: physicochemical.
Data set [8] in a line: Solubility in pH 5 FeSSIF after 4 hrs by HPLC analysis. Type of data set: physicochemical.
Data set [9] in a line: Volume of distribution at steady state in Sprague-Dawley rat plasma at 100 mg/kg, po administered via gavage or iv administered as 10 mins infusion by LC/MS analysis. Type of data set: ADME, organism-based. To be noted: read-out: Vdss.
Data set [10] is described as follows: Solubility in pH 6.5 FaSSIF after 4 hrs by HPLC analysis. Type of data set: physicochemical.
A short description of data set [11]: Oral bioavailability in Sprague-Dawley rat at 100 mg/kg administered via gavage by LC/MS analysis. To be noted: in vivo. Type of data set: ADME, organism-based.
Data set [12] in a line: Solubility in 0.01 N HCl buffer at pH 2 after 4 hrs by HPLC analysis. Type of data set: physicochemical.
Data set [13] in a line: Solubility in pH 2 citric acid monophosphate buffer after 4 hrs by HPLC analysis. Type of data set: physicochemical.
In data set [14] the test system is Plasmodium falciparum. The data set is described as follows: Antimalarial activity against Plasmodium falciparum Pf3D70087/N9 infected in po dosed humanized NOD.Cg-Prkdcscid Il2rgtm1Wjl/SzJ mouse assessed as reduction in parasitemia administered as single dose measured on day 7 post infection by SYTO-16 dye-based flow cytometric analysis. Type of data set: functional. To be noted: 168 h.

A short description of data set [15]: Drug level in rat liver microsomes treated with N205 at 5 uM after 60 mins by UPLC-MS analysis. Type of data set: ADME, microsome. To be noted: 1 h.
The nature of data set [16]: Drug level in mouse liver microsomes treated with N205 at 5 uM after 60 mins by UPLC-MS analysis. Type of data set: ADME, microsome. The conditions noted are these: 1 h.
A short description of data set [17]: Drug level in human liver microsomes treated with N205 at 5 uM after 60 mins by UPLC-MS analysis. Type of data set: ADME, microsome. The conditions noted are these: 1 h.
A short description of data set [18]: Retention time of the compound. Type of data set: physicochemical.
The test system of data set [19] is Plasmodium falciparum. The data set can be described thus: Antimalarial activity against Plasmodium falciparum Pf3D70087/N9 infected in humanized NOD.Cg-Prkdcscid Il2rgtm1Wjl/SzJ mouse assessed as reduction in parasitemia administered 4 daily doses by SYTO-16 dye-based flow cytometric analysis. Type of data set: functional.
Data set [20] can be described thus: Protein binding in human plasma at 2000 ng/ml after 6 hrs by equilibrium dialysis method. The conditions noted are these: read-out: PB. Type of data set: ADME, cell-free.
Data set [21] is described as follows: Protein binding in human liver microsomes at 1 uM by ultracentrifugation method. Type of data set: ADME, microsome. To be noted: read-out: PB.
A short description of data set [22]: Drug degradation in human blood after 4 hrs by LC-MS method. Type of data set: ADME, tissue-based. To be noted: read-out: Drug degradation.
Data set [23] is described as follows: Clearance in Sprague-Dawley rat plasma at 100 mg/kg, po administered via gavage or administered as 10 mins infusion iv by LC/MS analysis. Type of data set: ADME, organism-based.
The nature of data set [24]: Solubility in PH 7.4 PBS buffer after 4 hrs by HPLC analysis. Type of data set: physicochemical.
A short description of data set [25]: Half life in iv dosed Sprague-Dawley rat plasma administered as 10 mins infusion by LC/MS analysis. Type of data set: ADME, organism-based.
A short description of data set [26]: Half life in rat blood after 4 hrs by LC-MS method. Type of data set: ADME, tissue-based.
Data set [27] in a line: Metabolic stability in rat blood after 2 to 4 hrs by LC-MS method. Type of data set: ADME, tissue-based.
The nature of data set [28]: Metabolic stability in human blood after 2 to 4 hrs by LC-MS method. Type of data set: ADME, tissue-based.
The nature of data set [29]: Half life in Sprague-Dawley rat at 10 mg/kg, po. Type of data set: ADME, organism-based. The conditions noted are these: in vivo.

Turning to `CC(C)(N)CNC(=O)CC1CCC2(CC1)OOC1(O2)C2CC3CC(C2)CC1C3` (centres undefined), the Activity with Plasmodium berghei [1] is on record as 99.98%. For the same compound, the MSD in the data set on Plasmodium berghei [2] is 10.2 days.

Compound `NC1CN(C(=O)c2ccc(C3CCC4(CC3)OOC3(OO4)C4CC5CC(C4)CC3C5)cc2)C1` (centres undefined) gave a negative-log IC50 (pIC50) with Plasmodium falciparum [3] of 7.48. Moreover, the half-life in data set [4] was less than 4 h.

As to `c1cc(C2CCC3(CC2)OOC2(O3)C3CC4CC(C3)CC2C4)ccc1OCCN1CCOCC1` (centres undefined) [listing 1 of 2 here], the AUCED90 in the data set with Plasmodium falciparum [5] amounted to 0.68 µg·h/mL.

On to `CS(=O)(=O)O.c1cc(C2CCC3(CC2)OOC2(O3)C3CC4CC(C3)CC2C4)ccc1OCCN1CCOCC1` (centres undefined), for which the solubility at 4 h in data set [6] was 6800 µg/mL; in [7], 34 µg/mL; in data set [8] (FeSSIF, pH 5) it was greater than 1500 µg/mL; in data set [10], 120 µg/mL; in data set [12] it was 240 µg/mL; in [13], greater than 8000 µg/mL. The Vd in data set [9] stood at 18 L/kg. In [11], this compound displayed a bioavailability of 100%.

Turning to `c1cc(C2CCC3(CC2)OOC2(O3)C3CC4CC(C3)CC2C4)ccc1OCCN1CCOCC1` (centres undefined) [listing 2 of 2 here], in the data set on Plasmodium berghei [1], the Activity is 99.4%. In the data set on Plasmodium falciparum [3], the pIC50 was 8.10. Also, in the data set on Plasmodium falciparum [14], the ED90 was found to be 6.2 mg/kg. In addition, in the data set on Plasmodium berghei [2], the MSD worked out at 30 days.

As to `O=C(c1ccc(C2CCC3(CC2)OOC2(OO3)C3CC4CC(C3)CC2C4)cc1)N1CCNCC1` (centres undefined), in the data set on Plasmodium berghei [1], the Activity is 99%. Besides, the pIC50 in the data set with Plasmodium falciparum [3] is 8.52. Also, in data set [4], the half-life is less than 4 h. In addition, in the data set with Plasmodium berghei [2], the MSD was found to be 10 days.

Turning to `OC1CCC(c2ccc(CN3CCOCC3)cc2)CC1` (centres undefined), the Drug metabolism result in data set [15], in data set [16] and in data set [17] was “Metabolite_Detected” throughout. The Retention_time in [18] is 0.86 min.

The compound `O=C(c1ccc(C2CCC3(CC2)OOC2(OO3)C3CC4CC(C3)CC2C4)cc1)N1CCSCC1` (centres undefined) had a pIC50 with Plasmodium falciparum [3] of 7.82. Moreover, the half-life in [4] was less than 4 h.

On to `OCCNCc1ccc(C2CCC3(CC2)OOC2(OO3)C3CC4CC(C3)CC2C4)cc1` (centres undefined), for which the Drug metabolism result in data set [15], in [16] and in data set [17] was “Metabolite_Detected” throughout. For the same compound, in data set [18], the Retention_time was determined as 3.54 min.

For `C[C@H]1[C@H](OC(=O)CCC(=O)O)O[C@@H]2O[C@@]3(C)CC[C@H]4[C@H](C)CC[C@@H]1[C@@]24OO3` [ARTESUNATE], the Activity in the data set with Plasmodium berghei [1] is given as 99.09%. Further, the ED90 in the data set with Plasmodium falciparum [19] came to 10 mg/kg. Also, the MSD in the data set on Plasmodium berghei [2] turned out to be 6.8 days.

Regarding `CS(=O)(=O)O.c1cc(C2CCC3(CC2)OOC2(OO3)C3CC4CC(C3)CC2C4)ccc1CN1CCOCC1` (centres undefined), the fraction unbound at 6 h, 2000 ng/ml in data set [20] was less than 0.001. Besides, the fraction unbound at 1 µM in [21] was less than 0.001. Also, the solubility at 4 h was greater than 9000 µg/mL in data set [6]; 17 µg/mL in data set [7]; 18 µg/mL in data set [10]; less than 0.1 µg/mL in [24]; 172 µg/mL in data set [12]; greater than 9000 µg/mL in data set [13]. For the same compound, the Activity with Plasmodium berghei [1] was determined as 99.3%. Also, the metabolised at 4 h in data set [22] was 10%. The compound further returned a solubility in data set [8] (simulated gi fluid, pH 5, 4 h) of 760 µg/mL. In addition, the Vd in data set [9] was 11 L/kg. Moreover, in data set [23], the clearance is 77 mL/min/kg. The MSD in the data set with Plasmodium berghei [2] was 25 days. Also, the half-life in data set [25] was 6.35 h; in [26] it was 8 h.

For `O=C(c1ccc(C2CCC3(CC2)OOC2(OO3)C3CC4CC(C3)CC2C4)cc1)N1CCCNCC1` (centres undefined), the negative-log IC50 (pIC50) in the data set on Plasmodium falciparum [3] was 9.09. The compound further registered a half-life in data set [4] of less than 4 h.

In the case of `CS(=O)(=O)O.FC1CCN(Cc2ccc(C3CCC4(CC3)OOC3(OO4)C4CC5CC(C4)CC3C5)cc2)CC1` (centres undefined), the Activity in the data set with Plasmodium berghei [1] was found to be 99.98%. Moreover, in the data set on Plasmodium berghei [2], the MSD came out at 13 days.

`c1cc(C2CCC3(CC2)OOC2(OO3)C3CC4CC(C3)CC2C4)ccc1CN1CCOCC1` (centres undefined): the AUCED90 in the data set with Plasmodium falciparum [5] is less than 0.75 µg·h/mL.

In the case of `NC1CCN(C(=O)c2ccc(C3CCC4(CC3)OOC3(OO4)C4CC5CC(C4)CC3C5)cc2)CC1` (centres undefined), the Activity in the data set on Plasmodium berghei [1] turned out to be 99%. Moreover, in the data set with Plasmodium falciparum [3], the pIC50 was 8.38. For the same compound, the half-life in data set [4] was less than 4 h. In the data set on Plasmodium berghei [2], the MSD came out at 8 days.

In the data set on Plasmodium falciparum [3], `O=C(c1ccc(C2CCC3(CC2)OOC2(OO3)C3CC4CC(C3)CC2C4)cc1)N1CCOCC1` (centres undefined) showed a pIC50 of 8.15. In [4], this compound showed a half-life of less than 4 h.

In turn, `FC1CCN(Cc2ccc(C3CCC4(CC3)OOC3(OO4)C4CC5CC(C4)CC3C5)cc2)CC1` (centres undefined) showed a pIC50 with Plasmodium falciparum [3] of 8.74. In addition, the Stability result in data set [27] and in data set [28] was “Stable” each time.

On to `CN1CCN(C(=O)c2ccc(C3CCC4(CC3)OOC3(OO4)C4CC5CC(C4)CC3C5)cc2)CC1` (centres undefined), for which, in the data set with Plasmodium falciparum [3], the pIC50 was 8.19. Moreover, the half-life in data set [4] is less than 4 h.

As for `O=C1CCC(c2ccc(CN3CCOCC3)cc2)CC1`, the Drug metabolism entry in data set [15], in data set [16] and in [17] was “Metabolite_Detected” in each case. In data set [18], this compound had a Retention_time of 0.84 min.

Take `CNCCNC(=O)c1ccc(C2CCC3(CC2)OOC2(OO3)C3CC4CC(C3)CC2C4)cc1` (centres undefined): in the data set with Plasmodium falciparum [3], the pIC50 was 9.08. The half-life in [4] was less than 4 h.

As for `CN1CCN(C2CCN(C(=O)CC3CCC4(CC3)OOC3(OO4)C4CC5CC(C4)CC3C5)CC2)CC1` (centres undefined), the Activity in the data set with Plasmodium berghei [1] is reported as 99.98%. Besides, the half-life in data set [29] was 3.5 h. Further, the MSD in the data set with Plasmodium berghei [2] was determined as 11.4 days.

On to `O=C(NCC1CCNCC1)c1ccc(C2CCC3(CC2)OOC2(OO3)C3CC4CC(C3)CC2C4)cc1` (centres undefined), for which the pIC50 in the data set on Plasmodium falciparum [3] is 8.28. The half-life in data set [4] is less than 4 h.

`NCCNC(=O)c1ccc(C2CCC3(CC2)OOC2(OO3)C3CC4CC(C3)CC2C4)cc1` (centres undefined): in the data set on Plasmodium falciparum [3], the pIC50 was 8.96. The same compound registered a half-life in data set [4] of less than 4 h.
